Measurements reported in patent publication US20140121373A1, “PROCESS FOR PREPARING STABLE POLYMORPHIC FORM OF ERLOTINIB HYDROCHLORIDE” (CADILA HEALTHCARE LIMITED, priority 2011, published 2014).

Assay: Chemical stability study of the stable form of Erlotinib hydrochloride (description, HPLC impurities, moisture content, assay on storage)
Assay type: physicochemical
Details: for Imp-1 (%) (N-(3-Ethynylphenyl)-6-(2-chloroethoxy)-7-(2-methoxyethoxy)-quinazolin-4-amine hydrochloride) / Imp-2 (%) (N-(3-Ethynylphenyl)-7-(2-chloroethoxy)-6-(2-methoxyethoxy)-quinazolin-4-amine hydrochloride): limit 0.15 w/w; for m/c (%): limit 0.5 w/w; for Assay (%), OAB: limit 98.0-102 w/w; for Description: limit White to off white
Procedure: (Refrigerator), 25° C.±2° C.[…], 30° C.±2° C./65%±5% RH (Real Time) and 40° C.±2° C./75%±5% RH of Erlotinib Hydrochloride
Differential Scanning Calorimetry (DSC): Melting points are determined by means of a DSC thermogram using a Pyris-1 make Perkin Elmer. DSC (Differential Scanning Calorimetry) is the technique of dynamic differential Calorimetry. Using this technique, the melting temperature can be measured by heating the sample until a thermal, i.e. an endothermic or exothermic, reaction is detected by means of ultrasensitive sensors. The DSC cell/sample chamber was purged with 100 ml/min of ultra-high purity nitrogen. The instrument was calibrated with high purity Indium. The sample was placed into an open aluminum DSC pan and measured against an empty reference pan. About 2 mg of sample being placed into the bottom of the pan and lightly tapped down to ensure good contact with the pan. The instrument was programmed to heat at a heating rate of 10° C./min in the temperature range between 50° C. and 300° C. • Microscope: A Lieca Microscope with Linkam Hot stage microscopy (TMS-94) system with polarized light, CCD camera and Linksys 32 data software. • HPLC: High Performance Liquid Chromatography Separation Module with PDA detector, Make Waters, Model No 2695. • KF: Moisture content was analyzed by using Karl Fisher Autotitrator 795 KFT Titrino make Metrohm.

[1] = 5° C. ± 3° C. (Refrigerator), Month 1
[2] = 5° C. ± 3° C. (Refrigerator), Month 2
[3] = 5° C. ± 3° C. (Refrigerator), Month 3
[4] = 5° C. ± 3° C. (Refrigerator), Month 6
[5] = 25° C. ± 2° C./60% ± 5% RH, Month 1
[6] = 25° C. ± 2° C./60% ± 5% RH, Month 2
[7] = 25° C. ± 2° C./60% ± 5% RH, Month 3
[8] = 25° C. ± 2° C./60% ± 5% RH, Month 6
[9] = 30° C. ± 2° C./65% ± 5% RH (Real Time), Month 1

In the case of `C#Cc1cccc(Nc2ncnc3cc(OCCOC)c(OCCOC)cc23)c1.Cl` [Erlotinib hydrochloride, 4-(3-Ethynylphenylamino)-6,7-bis(2-methoxyethoxy)-quinazoline], the “period over which stable with all impurities in limit” value (5° C. to 40° C./75% RH storage conditions of the chemical stability table) is reported as no less than 6 months, the “Total Imp” value [1] is reported as 0.12 % w/w and the “Imp-1 (%) (N-(3-Ethynylphenyl)-6-(2-chloroethoxy)-7-(2-methoxyethoxy)-quinazolin-4-amine hydrochloride)” value (shortened to “Imp-1 (%)”) [1] is reported as 0.05%. For the same compound, the “Imp-2 (%) (N-(3-Ethynylphenyl)-7-(2-chloroethoxy)-6-(2-methoxyethoxy)-quinazolin-4-amine hydrochloride)” value (“Imp-2 (%)” for short) [1] was 0.07%, the “m/c (%)” value [1] was 0.16% and the “Assay (%), OAB” value [1] was 99.5%. The Description [1] was “Complies”, the “Total Imp” value [2] was 0.13 % w/w and the “Imp-1 (%)” value [2] was 0.05%. For the same compound, the “Imp-2 (%)” value [2] was 0.08%, the “m/c (%)” value [2] was 0.15% and the “Assay (%), OAB” value [2] was 99.6%. The Description [2] was “Complies”, the “Total Imp” value [3] was 0.13 % w/w and the “Imp-1 (%)” value [3] was 0.05%. The “Imp-2 (%)” value [3] was 0.08%, the “m/c (%)” value [3] was 0.15% and the “Assay (%), OAB” value [3] was 99.5%. For the same compound, the Description [3] was “Complies”, the “Total Imp” value [4] was 0.14 % w/w and the “Imp-1 (%)” value [4] was 0.06%. The “Imp-2 (%)” value [4] was 0.08%, the “m/c (%)” value [4] was 0.15% and the “Assay (%), OAB” value [4] was 99.8%. The Description [4] was “Complies”, the “Total Imp” value [5] was 0.13 % w/w and the “Imp-1 (%)” value [5] was 0.05%. For the same compound, the “Imp-2 (%)” value [5] was 0.08%, the “m/c (%)” value [5] was 0.14% and the “Assay (%), OAB” value [5] was 99.9%. For the same compound, the Description [5] was “Complies”, the “Total Imp” value [6] was 0.13 % w/w and the “Imp-1 (%)” value [6] was 0.05%. The “Imp-2 (%)” value [6] was 0.08%, the “m/c (%)” value [6] was 0.13% and the “Assay (%), OAB” value [6] was 99.2%. The Description [6] was “Complies”, the “Total Imp” value [7] was 0.13 % w/w and the “Imp-1 (%)” value [7] was 0.05%. For the same compound, the “Imp-2 (%)” value [7] was 0.08%, the “m/c (%)” value [7] was 0.14% and the “Assay (%), OAB” value [7] was 99.3%. The Description [7] was “Complies”, the “Total Imp” value [8] was 0.13 % w/w and the “Imp-1 (%)” value [8] was 0.05%. For the same compound, the “Imp-2 (%)” value [8] was 0.08%, the “m/c (%)” value [8] was 0.14% and the “Assay (%), OAB” value [8] was 99.9%. For the same compound, the Description [8] was “Complies”, the “Total Imp” value [9] was 0.14 % w/w and the “Imp-1 (%)” value [9] was 0.06%. For the same compound, the “Imp-2 (%)” value [9] was 0.08% and the “m/c (%)” value [9] was 0.12%.
